# Like-named read-outs stand apart in the source and are kept apart here.
# Legend:
# [1] = system: polymorphonuclear neutrophils; conditions: cited from earlier work
# [2] = system: granular masses and polymorphonuclear neutrophils; conditions: cited from earlier work
# [3] = system: human oral fluid-cell harvests; experiment: cells; format: cell-based
# [4] = system: peripheral inflammatory cells of oral fluid-cell harvests; format: cell-based, human
# myeloperoxidase = target: T1, myeloperoxidase (Homo sapiens, UniProt P05164); experiment: NADH2-NDGA-myeloperoxidase spectrophotometric assay of sputum / oral fluid-cell harvest supernatant extracts; format: biochemical; conditions: for IC50: read-out: concentration that produces fifty (50) percent inhibition of myeloperoxidase
# T1 construct: Homogenates were centrifuged at 1,300×g for ten (10) minutes and the supernatant extracts were kept during the course of analysis; from tissue; host or cells: human sputum / oral fluid-cell harvest (neutrophil-rich) homogenate supernatants
# T1 sequence (P05164 49-745): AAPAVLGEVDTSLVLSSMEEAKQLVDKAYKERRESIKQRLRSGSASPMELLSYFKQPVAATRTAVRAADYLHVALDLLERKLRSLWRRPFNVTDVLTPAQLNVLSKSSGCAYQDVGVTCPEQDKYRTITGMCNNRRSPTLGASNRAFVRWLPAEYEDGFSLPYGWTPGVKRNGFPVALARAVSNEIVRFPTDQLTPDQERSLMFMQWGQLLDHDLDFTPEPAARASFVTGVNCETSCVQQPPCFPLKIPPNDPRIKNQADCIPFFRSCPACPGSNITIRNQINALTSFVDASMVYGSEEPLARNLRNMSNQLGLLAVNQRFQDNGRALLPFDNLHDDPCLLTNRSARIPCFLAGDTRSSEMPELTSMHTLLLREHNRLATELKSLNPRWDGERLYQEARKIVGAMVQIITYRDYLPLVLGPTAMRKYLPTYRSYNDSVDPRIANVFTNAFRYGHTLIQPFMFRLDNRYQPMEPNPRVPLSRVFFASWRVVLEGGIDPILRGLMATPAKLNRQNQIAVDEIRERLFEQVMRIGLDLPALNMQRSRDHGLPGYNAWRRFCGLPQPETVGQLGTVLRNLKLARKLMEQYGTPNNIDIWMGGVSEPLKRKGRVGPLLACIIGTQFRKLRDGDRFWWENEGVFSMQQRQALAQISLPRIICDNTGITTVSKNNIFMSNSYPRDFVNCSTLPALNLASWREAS
# Description: Aliquots of fresh human oral fluid-cell harvests as exemplified above or fresh human sputum collected by the donors over a twenty-four (24) hour period were disrupted employing either Ten Broeck glass homogenizers or the Virtis homogenizer. Homogenates were centrifuged at 1,300×g for ten (10) minutes and the supernatant extracts were kept during the course of analysis at zero degrees centigrade (0° C.). Other reactants were incubated at thirty-five degrees centigrade (35° C.). Reduced nicotinamide-adenine dinucleotide oxidase and norhydroguaiaretic acid-myeloperoxidase activities were followed at 340 mμ or (nm) employing the Beckman Model DU Spectrophotometer temperature regulated at thirty-five degrees centigrade (35° C.). All specific reactions were run as duplicate assays.
# Although this oxidation was very small under the conditions of experiment, an interaction correction factor was determined and applied to all reduced nicotinamide-adenine dinucleotide-nordihydroguaiaretic acid-mycloperoxidase assay reactions.
# The velocity constants for the myeloperoxidase reactions behaved and were computed in accord with zero order reaction kinetics. […] In most instances, the activities followed first order reaction kinetics for a short interval and then ceased abruptly. The latter may be due to the presence or accumulation of variable concentrations of an unidentified inhibitor or inhibitors in the supernatants. Since in all cases the oxidase activities were very slow relative to the myeloperoxidase activities, the difference in optical density over the course of the reactions (up to ten (10) minutes) for the oxidase system were computed in the same manner as the data for the rapid myeloperoxidase system. Thus, all velocity constants were expressed in μ Moles of reduced nicotinamide-adenine dinucleotide oxidized per minute per ml. of oral fluid-cell harvest or sputum. The small oxidase activities were applied as a correction factor in the computation of all myeloperoxidase velocity constants.
# The pH optimum of the myeloperoxidase system was determined. When fresh nordihydroguaiaretic acid solutions were prepared and interaction rates with reduced nicotinamide-adenine dinucleotide were subtracted as controls from oral lavage and sputum supernatant myeloperoxidase activities, the net velocity constants were zero (0). On the other hand, five (5) hour old nordihydroguaiaretic acid solutions yielded optimal activities at approximately pH 7.4. Subsequent experiments uniformly were carried out at pH 7.0 using five (5) hour old solutions to minimize the rates of the auto oxidation of nordihydroguaiaretic acid and oxidation of reduced nicotinamide-adenine dinucleotide by nordihydroguaiaretic acid when employing alkaline pH's.
# [5] = system: myeloperoxidase (verdoperoxidase); conditions: cited from earlier work
# [6] = Homo sapiens, read-out: inhibition of aerobic (d) glucose dependent metabolism
# [7] = Homo sapiens, read-out: inhibition of anaerobic glucolysis
# [8] = Homo sapiens, read-out: inhibition of aerobic endogenous metabolism
# [9] = Homo sapiens, read-out: inhibition of anaerobic glucose metabolism
# [10] = with added 0.024 Molar hydrogen peroxide
molecule,measurement,setting,value
O=C(O)CI [iodoacetate],inhibition of exogenous hydrogen peroxide-dependent reaction in polymorphonuclear neutrophils,[1],inhibited completely
same,inhibition of endogenous reactions in granular masses and polymorphonuclear neutrophils,[2],inhibited completely
"[O]N=O [Nitrogen dioxide, nitrogen dioxide]",inhibition of aerobic metabolism,[3],"variable and, at times, doubtful inhibitions"
same,peripheral inflammatory cell function,[4],enhanced peripheral inflammatory cell function
nitric oxide [Nitrogen oxide],influence on metabolism,[3],did not influence
same,influence on cell function,[4],did not influence
[Cu+2] [cupric ion],inhibition of exogenous hydrogen peroxide-dependent reaction in polymorphonuclear neutrophils,[1]; low concentrations,inhibited completely
same,inhibition of endogenous reactions in granular masses and polymorphonuclear neutrophils,[2]; low concentrations,inhibited completely
"[F-].[Na+] [Sodium Flouride, sodium fluoride]",IC50,myeloperoxidase,63 mM
same,inhibition of myeloperoxidase activity,[5],inhibited
"CC=O [Acetaldehyde, acetaldehyde]",inhibition at 100 µM,[3]; [6],25%
same,inhibition at 1000 µM,[3]; [6],60%
same,inhibition at 100 µM,[3]; [7],10%
same,inhibition at 1000 µM,[3]; [7],30%
"OO [Hydrogen peroxide, hydrogen peroxide]",inhibition of hydrogen peroxide-dependent nitro-blue tetrazolium reducing enzyme activity,[1]; 0.15 Molar hydrogen peroxide,totally
same,inhibition of endogenous nitro-blue tetrazolium reducing enzyme activity in granular masses,[2]; 0.15 Molar hydrogen peroxide,100%
"C=CC=O [Acrolein, acrolein]",inhibition at 1 µM,[3]; [6],49%
same,inhibition at 2.5 µM,[3]; [6],81%
same,inhibition at 1 µM,[3]; [8],48%
same,inhibition at 2.5 µM,[3]; [8],66%
same,inhibition at 10 µM,[3]; [9],18%
same,inhibition at 25 µM,[3]; [9],43%
same,peripheral inflammatory cell function,[4],impaired to virtual total loss of function
"NO [Hydroxylamine, hydroxylamine]",IC50,myeloperoxidase; supernatant extracts,0.33 mM
same,inhibition of hydrogen peroxide-dependent nitro-blue tetrazolium reducing enzyme activity,[1]; [10],inhibited markedly
same,inhibition of endogenous reactions in polymorphonuclear neutrophils and granular masses,[2],not inhibited
same,inhibition of myeloperoxidase activity,"[5]; Agner 1941, 1958",inhibited
"crystalline catalase (protein, UniProt P00432 2-527, looked up) Catalase: ADNRDPASDQMKHWKEQRAAQKPDVLTTGGGNPVGDKLNSLTVGPRGPLLVQDVVFTDEMAHFDRERIPERVVHAKGAGAFGYFEVTHDITRYSKAKVFEHIGKRTPIAVRFSTVAGESGSADTVRDPRGFAVKFYTEDGNWDLVGNNTPIFFIRDALLFPSFIHSQKRNPQTHLKDPDMVWDFWSLRPESLHQVSFLFSDRGIPDGHRHMNGYGSHTFKLVNANGEAVYCKFHYKTDQGIKNLSVEDAARLAHEDPDYGLRDLFNAIATGNYPSWTLYIQVMTFSEAEIFPFNPFDLTKVWPHGDYPLIPVGKLVLNRNPVNYFAEVEQLAFDPSNMPPGIEPSPDKMLQGRLFAYPDTHRHRLGPNYLQIPVNCPYRARVANYQRDGPMCMMDNQGGAPNYYPNSFSAPEHQPSALEHRTHFSGDVQRFNSANDDNVTQVRTFYLKVLNEEQRKRLCENIAGHLKDAQLFIQKKAVKNFSDVHPEYGSRIQALLDKYNEEKPKNAVHTYVQHGSHLSAREKANL",inhibition of myeloperoxidase activity,myeloperoxidase; 14 units of crystalline catalase added,~50%
same,inhibition of myeloperoxidase activity,myeloperoxidase; 41 units of crystalline catalase added,~90%
same,inhibition of hydrogen peroxide-dependent nitro-blue tetrazolium reducing enzyme activity,[1]; [10],inhibited markedly
same,inhibition of endogenous reactions in polymorphonuclear neutrophils and granular masses,[2],not inhibited
